Assay results from patent publication US20230085307A1, “PYRIDAZINONE COMPOUND AND HERBICIDE” (NISSAN CHEMICAL CORPORATION, priority 2019, published 2023).

What was measured:
southern crabgrass = assay: Test Example 4: herbicidal effect by soil treatment (Table 19, symbol F); type: in vivo, southern crabgrass (Digitaria ciliaris); details: amount of applied herbicide 320 g/ha
Summary of the method: (§1)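 In this soil treatment, the formulated compound reached the seeds only through the soil: seeds were buried about 1.5 cm deep in sterilized diluvial soil, then the diluted emulsion was sprayed over the surface. After three weeks at 25° C. to 30° C. in a greenhouse, effects were graded on criteria from an earlier test.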

chickweed = assay: Test Example 5: herbicidal effect by foliage application, plastic box (Table 20, symbol P); type: in vivo, common chickweed (Stellaria media); details: foliage application, 320 g/ha, three weeks after application
Summary of the method: (§2)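 Plants were sown into sterilized diluvial soil under about 1.5 cm cover and kept in a greenhouse at 25° C. to 30° C. Fourteen days on, foliage received an even spray of the diluted emulsion. Herbicidal or crop effect was judged three weeks afterwards.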

redroot pigweed [1] = assay: Test Example 5: herbicidal effect by foliage application, plastic box (Table 20, symbol N); type: in vivo, redroot pigweed (Amaranthus retroflexus); details: foliage application, 320 g/ha, three weeks after application
Summary of the method: as §2

Japanese bulrush [2] = assay: Test Example 2: herbicidal activity, application during weed generation under submerged conditions (Table 17, symbol B); type: in vivo, Japanese bulrush (Schoenoplectus juncoides); details: AAH 320 g/ha; application during weed generation, submerged conditions
Summary of the method: (§3)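 Alluvial soil in Wagner pots was flooded to 4 cm depth and sown with the three weeds together; pots were kept in a greenhouse at 25° C. to 30° C. At the one to two leaf stage, an emulsion formulation diluted in water to a set rate went onto the water surface; scored three weeks later.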

false cleavers [3] = assay: Test Example 4: herbicidal effect by soil treatment (Table 19, symbol Q); type: in vivo, false cleavers (Galium spurium); details: amount of applied herbicide 320 g/ha
Summary of the method: as §1

Italian ryegrass = assay: Test Example 4: herbicidal effect by soil treatment (Table 19, symbol K); type: in vivo, Italian ryegrass (Lolium multiflorum); details: amount of applied herbicide 320 g/ha
Summary of the method: as §1

barnyard grass [4] = assay: Test Example 4: herbicidal effect by soil treatment (Table 19, symbol H); type: in vivo, barnyard grass (Echinochloa crus-galli); details: amount of applied herbicide 320 g/ha
Summary of the method: as §1

blackgrass [5] = assay: Test Example 4: herbicidal effect by soil treatment (Table 19, symbol J); type: in vivo, blackgrass (Alopecurus myosuroides); details: amount of applied herbicide 320 g/ha
Summary of the method: as §1

green foxtail = assay: Test Example 5: herbicidal effect by foliage application, plastic box (Table 20, symbol G); type: in vivo, green foxtail (Setaria viridis); details: foliage application, 320 g/ha, three weeks after application
Summary of the method: as §2

redroot pigweed [6] = assay: Test Example 4: herbicidal effect by soil treatment (Table 19, symbol N); type: in vivo, redroot pigweed (Amaranthus retroflexus); details: amount of applied herbicide 320 g/ha
Summary of the method: as §1

late watergrass = assay: Test Example 1: herbicidal activity, application before weed generation under submerged conditions (Table 16, symbol A); type: in vivo, late watergrass (Echinochloa oryzicola); details: amount of applied herbicide 320 g/ha
Summary of the method: (§4)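 Submerged Wagner pots (alluvial soil, 4 cm water) sown with weed seeds and planted with 2.5-leaf rice seedlings; emulsifiable concentrate diluted in water applied to water surface on sowing day. Held in greenhouse at 25-30 °C; injury scored 0-5 by herbicidal rate after three weeks.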

oval-leafed pondweed = assay: Test Example 2: herbicidal activity, application during weed generation under submerged conditions (Table 17, symbol C); type: in vivo, oval-leafed pondweed (Monochoria vaginalis); details: AAH 320 g/ha; application during weed generation, submerged conditions
Summary of the method: as §3

barnyard grass [7] = assay: Test Example 5: herbicidal effect by foliage application, plastic box (Table 20, symbol H); type: in vivo, barnyard grass (Echinochloa crus-galli); details: foliage application, 320 g/ha, three weeks after application
Summary of the method: as §2

wild oat [8] = assay: Test Example 5: herbicidal effect by foliage application, plastic box (Table 20, symbol I); type: in vivo, wild oat (Avena fatua); details: foliage application, 320 g/ha, three weeks after application
Summary of the method: as §2

blackgrass [9] = assay: Test Example 5: herbicidal effect by foliage application, plastic box (Table 20, symbol J); type: in vivo, blackgrass (Alopecurus myosuroides); details: foliage application, 320 g/ha, three weeks after application
Summary of the method: as §2

wild oat [10] = assay: Test Example 4: herbicidal effect by soil treatment (Table 19, symbol I); type: in vivo, wild oat (Avena fatua); details: amount of applied herbicide 320 g/ha
Summary of the method: as §1

false cleavers [11] = assay: Test Example 5: herbicidal effect by foliage application, plastic box (Table 20, symbol Q); type: in vivo, false cleavers (Galium spurium); details: foliage application, 320 g/ha, three weeks after application
Summary of the method: as §2

Japanese bulrush [12] = assay: Test Example 1: herbicidal activity, application before weed generation under submerged conditions (Table 16, symbol B); type: in vivo, Japanese bulrush (Schoenoplectus juncoides); details: amount of applied herbicide 320 g/ha
Summary of the method: as §4

SMILES: CCCC(=O)Oc1c(C)nn(C)c(=O)c1-c1c(-c2ccc(F)cc2)sc2cc(F)ccc12 [3-002]
- herbicidal effect, F: southern crabgrass (southern crabgrass): 0 (Herbicidal rate of 5% or less (almost no effect))
- P: chickweed, herbicidal effect grade (chickweed): 5 (Herbicidal rate of 90% or more (almost completely withered))
- N: redroot pigweed, herbicidal effect grade (redroot pigweed [1]): 5 (Herbicidal rate of 90% or more (almost completely withered))
- herbicidal effect rating, B: Japanese bulrush (Japanese bulrush [2]): 3 (Herbicidal rate of 40% or more and less than 70%)
- herbicidal effect, Q: false cleavers (false cleavers [3]): 1 (Herbicidal rate of 5% or more and less than 20%)
- herbicidal effect, K: Italian ryegrass (Italian ryegrass): 4 (Herbicidal rate of 70% or more and less than 90%)
- herbicidal effect, H: barnyard grass (barnyard grass [4]): 0 (Herbicidal rate of 5% or less (almost no effect))
- herbicidal effect, J: blackgrass (blackgrass [5]): 0 (Herbicidal rate of 5% or less (almost no effect))
- G: green foxtail, herbicidal effect grade (green foxtail): 4 (Herbicidal rate of 70% or more and less than 90%)
- herbicidal effect, N: redroot pigweed (redroot pigweed [6]): 5 (Herbicidal rate of 90% or more (almost completely withered))
- Herbicidal effect, A: late watergrass (late watergrass): 5 (Herbicidal rate of 90% or more (almost completely withered))
- herbicidal effect rating, C: oval-leafed pondweed (oval-leafed pondweed): 4 (Herbicidal rate of 70% or more and less than 90%)
- H: barnyard grass, herbicidal effect grade (barnyard grass [7]): 3 (Herbicidal rate of 40% or more and less than 70%)
- I: wild oat, herbicidal effect grade (wild oat [8]): 4 (Herbicidal rate of 70% or more and less than 90%)
- J: blackgrass, herbicidal effect grade (blackgrass [9]): 4 (Herbicidal rate of 70% or more and less than 90%)
- herbicidal effect, I: wild oat (wild oat [10]): 3 (Herbicidal rate of 40% or more and less than 70%)
- Q: false cleavers, herbicidal effect grade (false cleavers [11]): 5 (Herbicidal rate of 90% or more (almost completely withered))
- Herbicidal effect, B: Japanese bulrush (Japanese bulrush [12]): 3 (Herbicidal rate of 40% or more and less than 70%)

SMILES: CCCC(=O)Oc1c(C)nn(C)c(=O)c1-c1c(-c2ccc(F)cc2OC)sc2cc(F)ccc12 [3-010]
- herbicidal effect, F: southern crabgrass (southern crabgrass): 3 (Herbicidal rate of 40% or more and less than 70%)
- P: chickweed, herbicidal effect grade (chickweed): 5 (Herbicidal rate of 90% or more (almost completely withered))
- N: redroot pigweed, herbicidal effect grade (redroot pigweed [1]): 5 (Herbicidal rate of 90% or more (almost completely withered))
- herbicidal effect, Q: false cleavers (false cleavers [3]): 5 (Herbicidal rate of 90% or more (almost completely withered))
- herbicidal effect, K: Italian ryegrass (Italian ryegrass): 4 (Herbicidal rate of 70% or more and less than 90%)
- herbicidal effect, H: barnyard grass (barnyard grass [4]): 3 (Herbicidal rate of 40% or more and less than 70%)
- herbicidal effect, J: blackgrass (blackgrass [5]): 4 (Herbicidal rate of 70% or more and less than 90%)
- G: green foxtail, herbicidal effect grade (green foxtail): 5 (Herbicidal rate of 90% or more (almost completely withered))
- herbicidal effect, N: redroot pigweed (redroot pigweed [6]): 5 (Herbicidal rate of 90% or more (almost completely withered))
- Herbicidal effect, A: late watergrass (late watergrass): 5 (Herbicidal rate of 90% or more (almost completely withered))
- herbicidal effect rating, C: oval-leafed pondweed (oval-leafed pondweed): 4 (Herbicidal rate of 70% or more and less than 90%)
- H: barnyard grass, herbicidal effect grade (barnyard grass [7]): 5 (Herbicidal rate of 90% or more (almost completely withered))
- I: wild oat, herbicidal effect grade (wild oat [8]): 5 (Herbicidal rate of 90% or more (almost completely withered))
- J: blackgrass, herbicidal effect grade (blackgrass [9]): 5 (Herbicidal rate of 90% or more (almost completely withered))
- herbicidal effect, I: wild oat (wild oat [10]): 4 (Herbicidal rate of 70% or more and less than 90%)
- Q: false cleavers, herbicidal effect grade (false cleavers [11]): 5 (Herbicidal rate of 90% or more (almost completely withered))
- Herbicidal effect, B: Japanese bulrush (Japanese bulrush [12]): 4 (Herbicidal rate of 70% or more and less than 90%)

SMILES: COc1ccccc1-c1sc2cc(OC3CCCC3)ccc2c1-c1c(O)c(C)nn(C)c1=O [3-109]
- F: southern crabgrass, herbicidal effect grade (southern crabgrass): 2 (Herbicidal rate of 20% or more and less than 40%)
- P: chickweed, herbicidal effect grade (chickweed): 5 (Herbicidal rate of 90% or more (almost completely withered))
- N: redroot pigweed, herbicidal effect grade (redroot pigweed [1]): 5 (Herbicidal rate of 90% or more (almost completely withered))
- herbicidal effect rating, B: Japanese bulrush (Japanese bulrush [2]): 3 (Herbicidal rate of 40% or more and less than 70%)
- K: Italian ryegrass, herbicidal effect grade (Italian ryegrass): 4 (Herbicidal rate of 70% or more and less than 90%)
- H: barnyard grass, herbicidal effect grade (barnyard grass [4]): 1 (Herbicidal rate of 5% or more and less than 20%)
- J: blackgrass, herbicidal effect grade (blackgrass [5]): 0 (Herbicidal rate of 5% or less (almost no effect))
- G: green foxtail, herbicidal effect grade (green foxtail): 5 (Herbicidal rate of 90% or more (almost completely withered))
- N: redroot pigweed, herbicidal effect grade (redroot pigweed [6]): 5 (Herbicidal rate of 90% or more (almost completely withered))
- Herbicidal effect, A: late watergrass (late watergrass): 5 (Herbicidal rate of 90% or more (almost completely withered))
- herbicidal effect rating, C: oval-leafed pondweed (oval-leafed pondweed): 2 (Herbicidal rate of 20% or more and less than 40%)
- H: barnyard grass, herbicidal effect grade (barnyard grass [7]): 4 (Herbicidal rate of 70% or more and less than 90%)
- I: wild oat, herbicidal effect grade (wild oat [8]): 0 (Herbicidal rate of 5% or less (almost no effect))
- J: blackgrass, herbicidal effect grade (blackgrass [9]): 2 (Herbicidal rate of 20% or more and less than 40%)
- I: wild oat, herbicidal effect grade (wild oat [10]): 5 (Herbicidal rate of 90% or more (almost completely withered))
- Q: false cleavers, herbicidal effect grade (false cleavers [11]): 1 (Herbicidal rate of 5% or more and less than 20%)
- Herbicidal effect, B: Japanese bulrush (Japanese bulrush [12]): 5 (Herbicidal rate of 90% or more (almost completely withered))

SMILES: Cc1nn(C)c(=O)c(-c2c(-c3ccc4c(c3)OCCO4)oc3ccccc23)c1O [8-002]
- F: southern crabgrass, herbicidal effect grade (southern crabgrass): 3 (Herbicidal rate of 40% or more and less than 70%)
- herbicidal effect rating, B: Japanese bulrush (Japanese bulrush [2]): 4 (Herbicidal rate of 70% or more and less than 90%)
- Q: false cleavers, herbicidal effect grade (false cleavers [3]): 0 (Herbicidal rate of 5% or less (almost no effect))
- K: Italian ryegrass, herbicidal effect grade (Italian ryegrass): 0 (Herbicidal rate of 5% or less (almost no effect))
- H: barnyard grass, herbicidal effect grade (barnyard grass [4]): 3 (Herbicidal rate of 40% or more and less than 70%)
- J: blackgrass, herbicidal effect grade (blackgrass [5]): 0 (Herbicidal rate of 5% or less (almost no effect))
- herbicidal effect on green foxtail (G) (green foxtail): 3 (Herbicidal rate of 40% or more and less than 70%)
- N: redroot pigweed, herbicidal effect grade (redroot pigweed [6]): 2 (Herbicidal rate of 20% or more and less than 40%)
- Herbicidal effect, A: late watergrass (late watergrass): 4 (Herbicidal rate of 70% or more and less than 90%)
- herbicidal effect rating, C: oval-leafed pondweed (oval-leafed pondweed): 5 (Herbicidal rate of 90% or more (almost completely withered))
- herbicidal effect on barnyard grass (H) (barnyard grass [7]): 4 (Herbicidal rate of 70% or more and less than 90%)
- herbicidal effect on wild oat (I) (wild oat [8]): 2 (Herbicidal rate of 20% or more and less than 40%)
- herbicidal effect on blackgrass (J) (blackgrass [9]): 0 (Herbicidal rate of 5% or less (almost no effect))
- I: wild oat, herbicidal effect grade (wild oat [10]): 0 (Herbicidal rate of 5% or less (almost no effect))
- herbicidal effect on false cleavers (Q) (false cleavers [11]): 0 (Herbicidal rate of 5% or less (almost no effect))
- Herbicidal effect, B: Japanese bulrush (Japanese bulrush [12]): 5 (Herbicidal rate of 90% or more (almost completely withered))
